We go through 2 molecules from paper PMC12670408, “Backbone Alterations in Cyclic Peptides Influence Both Membrane Permeability and Biological Activity” (Journal of Medicinal Chemistry, 2025).

Series [1] can be described thus: CHI-IAM chromatography (immobilized artificial membrane). The class given is physicochemical. As to conditions: IAM.PC.DD2 column, ammonium acetate buffer pH 7.4. From the text: With all peptides in hand we first set out to estimate their passive membrane permeability using the immobilized artificial membrane (IAM) chromatography technique. , An IAM column is packed with a reverse phase like material modified with phospholipids to mimic a cellular membrane. After analysis of a compound its retention time is compared to a set of calibration compounds to yield a CHI-IAM value. A higher value indicates a stronger membrane interaction, which can be correlated to passive membrane permeability.
CHI-IAM chromatography was carried out on an Agilent 1200 Series LC (Agilent Technologies, USA) equipped with a 4.6 mm × 100 mm to 150 mm IAM.PC.DD2 column from Regis Technologies, Inc., eluting at 1.5 mL/min, eluting over a gradient of 0% – 85% MeCN with a 50 mM ammonium acetate buffer adjusted to pH 7.4 over 4.75 min.

Another series has as its system U2OS cells. The series can be described thus: Cell painting assay (induction, cell count). The class given is cell-based. On the procedure: Therefore, we subjected our set of compounds to the cell painting assay that is agnostic toward specific biological targets. In our cell-painting setup, the compounds were tested at different concentrations (10, 30, and 50 μM) in U2OS cells followed by treatment with dyes for mitochondria (Mito Tracker Deep Red), endoplasmic reticulum (concanavalin-Alexa488 conjugate), actin, (Phalloidin-Alexa594 conjugate), DNA (Hoechst 33342), nucleoli and cytoplasmic RNA (SYTO 14), and Golgi and plasma membranes (WGA-Alexa594 conjugate). Next, the cells were imaged in various channels at 9 sites per well and a total of 579 morphological parameters were extracted. An induction score was calculated from this analysis, which represents the number of parameters for which the change was significant in comparison to the DMSO control.
The described assay follows closely the method described by Bray et al.
Initially, 5 μL U2OS medium were added to each well of a 384-well plate (Revvity PhenoPlate 384). Subsequently, U2OS cell were seeded with a density of 1600 cells per well in 20 μL medium. The plate was incubated for 10 min at ambient temperature, followed by an additional 4 h incubation (37 °C, 5% CO2). […] Incubation with compound was performed for 20 h (37 °C, 5% CO2). Subsequently, mitochondria were stained with Mito Tracker Deep Red (Thermo Fisher Scientific, Cat. No. M22426). The Mito Tracker Deep Red stock solution (1 mM) was diluted to a final concentration of 100 nM in prewarmed medium. The medium was removed from the plate leaving 10 μL residual volume and 25 μL of the Mito Tracker solution were added to each well. The plate was incubated for 30 min in darkness (37 °C, 5% CO2). To fix the cells 7 μL of 18.5% formaldehyde in PBS were added, resulting in a final formaldehyde concentration of […]. Subsequently, the plate was incubated for another 20 min in darkness (RT) and washed three times with 70 μL of PBS. (Agilent Washer Elx405). Cells were permeabilized by addition of 25 μL 0.1% Triton X-100 to each well, followed by 15 min incubation (RT) in darkness. The cells were washed three times with PBS leaving a final volume of 10 μL. To each well 25 μL of a staining solution were added, which contains 1% BSA, 5 μL/ml Phalloidin (Alexa594 conjugate, Thermo Fisher Scientific, A12381), 25 μg/mL Concanavalin A (Alexa488 conjugate, Thermo Fisher Scientific, Cat. No. C11252), 5 μg/mL Hoechst 33342 (Sigma, Cat. No. B2261–25 mg), 1.5 μg/mL WGA-Alexa594 conjugate (Thermo Fisher Scientific, Cat. No. W11262) and 1.5 μM SYTO 14 solution (Thermo Fisher Scientific, Cat. No. S7576). The plate is incubated for 30 min (RT) in darkness and washed three times with 70 μL PBS. After the final washing step, the PBS was not aspirated. The plates were sealed and centrifuged for 1 min at 50g.
The generated images were processed with the CellProfiler package (https://cellprofiler.org/, version 3.0.0) on a computing cluster of the Max Planck Society to extract 1716 cell features per microscope site. The data was then further aggregated as medians per well (9 sites → 1 well), then over the three replicates.
From the total set of 1716 features, a subset of highly reproducible and robust features was determined using the procedure described by Woehrmann et al. in the following way: Two biological repeats of one plate containing reference compounds were analyzed. For every feature, its full profile over each whole plate was calculated.
The phenotypic profiles were compiled from the Z-scores of all individual cellular features, where the Z-score is a measure of how far away a data point is from a median value.

The nature of series [2]: Variable-temperature 1H-NMR of amide protons. It counts as physicochemical. On the procedure:
The solvent exposure of peptide backbone NH groups can be studied using variable temperature ^1H-NMR experiments, where the change in chemical shift of the amide protons is observed upon increasing temperature. […] These experiments were performed for compounds SA-A1, SA-B1, SA-B2, and SA-B3 in both DMSO-d6, as a mimic of a polar environment, and CDCl3, as a mimic of the hydrophobic membrane environment (Figures S2–S9, and Tables and ). […] For SA-B3 the Ile-6 amide was also more exposed to solvent, but the change in Phe-2 shift was much smaller.
Variable-temperature nuclear magnetic resonance (VT-NMR) measurements were conducted using a Bruker Avance Neo 600 (av600) spectrometer equipped with a CP2.1 TMO 600 S3 cryoprobe. The ^1H NMR data was collected over a temperature range from 293.15 to 323.15 K, with temperature increments of 5 °C.

A further series can be described thus: H-D exchange NMR. As to conditions: 20% D2O and 80% DMSO-d6. It counts as physicochemical. The source says:
To further confirm the solvent accessibility of the amides we performed H-D exchange experiments using SA-A1, SA-B1, and SA-B3 by adding 20% D2O to samples dissolved in DMSO-d 6 (Table and Figures S10–S12). The rate of exchange of the amide proton for deuterium is an indicator of solvent accessibility. […] In line with their observations, the Ala-1 NH exchanges rather fast in SA-A1, which is in stark contrast to Ala-1 in SA-B1 and SA-B3 where it is fully stable. […] The Ile-4 amide is always strongly shielded which is in line with it being involved in a stable hydrogen bond with the Ala-1 carbonyl group as for SA-A1. […] Unfortunately, for SA-B3 this peak overlapped with aromatic peaks prohibiting quantification.
The samples were dissolved in DMSO-d 6 and 20% D2O was added. Immediately after ^1H NMR data was collected at 0, 10, 20, 30, and 240 min. The peak area was normalized to a peak of constant height.

For series [3] the following is noted: cited from earlier work.
On the set-up of series [4]: method as in Nielsen et al. The conditions noted are these: D2O (10%)/DMSO-d6 (90%), value in brackets, ref Nielsen et al.; cited from earlier work.
Details of series [5]: method as in Fairlie group. The conditions noted are these: ref Fairlie group; cited from earlier work.
Where [6] appears, read: CDCl3, value in brackets, ref Bockus et al.
The mark [7] stands for this setting: DMSO-d6, value in brackets, ref Nielsen et al.

Structures are written as SMILES. Like-named read-outs stand apart in the source and are kept apart here. Numbered stars: 1 amine (or outer) side, 2 acyl side, 3 side chain; on linkers, the order of the positions; unused ones are H or OH. Square brackets hold non-standard residues; d marks the D form. Peptide text beside a SMILES is read from it. Ile(ψThz) = CC[C@H](C)[C@H](N[*:1])c1nc(C(=O)[*:2])cs1

In series [1], `CC[C@H](C)[C@@H]1NC(=O)[C@@H]2CCCN2C(=O)[C@H]([C@@H](C)CC)NC(=O)[C@@H]2CCCN2C(=O)[C@H](Cc2ccccc2)NC(=O)[C@H](C)NC(=O)[C@H](CS)NC1=O` [SA-A3] (cyclo(AFPIPIC)) showed a CHI-IAM of 33.97 ± 0.13. Besides, in the series on U2OS cells, the “Cell count at 10 μM” value came out at 102%, the “Induction at 10 μM” value is 0.7%, the “Cell count at 30 μM” value was 102% and the “Induction at 30 μM” value worked out at 1%. Besides, in the series with U2OS cells, the “Cell count at 50 μM” value stood at 98% and the “Induction at 50 μM” value came to 1%.

For the molecule `CC[C@H](C)[C@@H]1NC(=O)[C@@H]2CCCN2C(=O)[C@H](Cc2ccccc2)NC(=O)[C@H](C)NC(=O)c2csc(n2)[C@H]([C@@H](C)CC)NC(=O)[C@@H]2CCCN2C1=O` [SA-A1, Sanguinamide A] (cyclo(AFPIP[Ile(ψThz)])), the CHI-IAM in series [1] is 39.71 ± 0.16. Also, in series [2] (CDCl3), the “ΔδNH/ΔT Ala-1” value is “–0.1 ppb/K”, the “ΔδNH/ΔT Ile-4” value was “–3.5 ppb/K”, the “ΔδNH/ΔT Ile-6” value is given as “–3.6 ppb/K” and the “ΔδNH/ΔT Phe-2” value was “–10.2 ppb/K”. Besides, in series [2] (DMSO-d6), the “ΔδNH/ΔT Ala-1” value is recorded as “–0.4 ppb/K”, the “ΔδNH/ΔT Ile-4” value is on record as “–1.7 ppb/K”, the “ΔδNH/ΔT Ile-6” value is reported as “–3.8 ppb/K” and the “ΔδNH/ΔT Phe-2” value was “–4.2 ppb/K”. In addition, in the series “H-D exchange NMR”, the “H-D exchange rate Ala-1” value was 57 min, the “H-D exchange rate Ile-4” value was more than 240 min, the “H-D exchange rate Ile-6” value is 341 min and the “H-D exchange rate Phe-2” value is 48 min. Besides, in the series with U2OS cells, the “Cell count at 10 μM” value is on record as 103%, the “Induction at 10 μM” value is recorded as 1.4%, the “Cell count at 30 μM” value worked out at 97% and the “Induction at 30 μM” value was determined as 32.6%. Besides, in the series with U2OS cells, the “Cell count at 50 μM” value is 88% and the “Induction at 50 μM” value was 29.7%. In series [3] (setting [6]), the “ΔδNH/ΔT Ala-1” value is on record as 0.1 ppb/K, the “ΔδNH/ΔT Ile-4” value is given as −3.1 ppb/K, the “ΔδNH/ΔT Ile-6” value is listed as −3.1 ppb/K and the “ΔδNH/ΔT Phe-2” value is −9.1 ppb/K. Also, in series [3] (setting [7]), the “ΔδNH/ΔT Ala-1” value was 0.4 ppb/K, the “ΔδNH/ΔT Ile-4” value was −1.5 ppb/K, the “ΔδNH/ΔT Ile-6” value is −4.0 ppb/K and the “ΔδNH/ΔT Phe-2” value is listed as −4.2 ppb/K. In addition, in series [4], the “H-D exchange rate Ala-1” value was 188 min, the “H-D exchange rate Ile-4” value is 6000 min, the “H-D exchange rate Ile-6” value is 1500 min and the “H-D exchange rate Phe-2” value is 380 min. Also, the “bioavailability (F)” value in series [5] was 7%.
